Test results: article PMC3659552 (Journal of Ginseng Research, 2011)
pIC50: −log10 of the molar value.

Target: AChE (acetylcholineserase)
Experiment: Ellman spectrophotometric assay, […] nm
Format: biochemical, Electrophorus electricus
Conditions: acetylthiocholine iodide substrate; pH 8.0; 10 min preincubation

With Nc1c2c(nc3ccccc13)CCCC2 [tacrine] the pIC50 was 6.08.
